The test deals with breast cancer cells. Nature of the test: Cell protrusion length of breast cancer cells in the networked cell-holder chip (time course imaging). Type of test: cell-based.

The source of these data is patent US20190344265A1, “Networked Cell Holder Chip” (priority 2018, published 2019).

SMILES strings stand for the structures.

Text: To load the cells into the chip of the present invention, a medium containing suspended cells is dropped onto the surface of the well plate of a chip of the present invention via a multichannel pipette or liquid handling system. In some embodiments of the present invention, 20-ml of the medium is dropped onto a chip of the present invention having a width of 86 mm, a length of 128 mm, and height of 14 mm. The chip is loaded on one of the receptors 302 of the bucket rotor 300. The bucket rotor is spun by the centrifuge 304 to drive the cells into the microwells of the chip. […] Filter papers (e.g., manufactured by Whatman) are used to swipe away the unloaded cells. Finally, the cells are cultured at 37° C. in the chip 100 a humidified atmosphere with 5% CO2, to enable protrusions to extend in the microchannels. The cells are also stained (for example, with green fluorescent protein—GFP) to enhance visibility of the cells and protrusions. […] The loaded breast cancer cells in both chips were incubated overnight. In the chip that was to be treated with the drug, the medium was replaced by a fresh culture medium mixed with paclitaxel concentration of 0.5 μM, after the incubation period.

In the case of `CC(=O)O[C@H]1C(=O)[C@@]2(C)[C@H]([C@H](OC(=O)c3ccccc3)[C@]3(O)C[C@H](OC(=O)[C@H](O)[C@@H](NC(=O)c4ccccc4)c4ccccc4)C(C)=C1C3(C)C)[C@]1(OC(C)=O)CO[C@@H]1C[C@@H]2O` [paclitaxel], the “time until effects of the drug on the cancer cells were clear” value (breast cancer cells in chip, paclitaxel 0.5 μM) is reported as “within one hour”. Besides, the “normalized length of cell protrusion over time” value (breast cancer cells incubated overnight in chip, then medium with paclitaxel 0.5 μM, sample of 51 cells (FIG. 29), untreated comparison 64 cells (FIG. 28)) is “reduces the length of the protrusions”.
